# Laboratory results: patent publication US11940444B2, “Method of stabilizing molecules without refrigeration using water soluble polymers and applications thereof in performing chemical reactions” (priority 2013, dated 2024)
# Tests used:
# [1] = ATCh stability (Ellman assay reagents); type: physicochemical; conditions: several days in the refrigerator and in a fume hood with no protection
# Method: When tested in solution, with the following amounts of reagents were used: • i. 15 uL ATCh (300 uM), 1 uL AChE (10 or 250 U/L) • ii. 50 uL of 500 uM DTNB • iii. 34 uL Tris
# Acetylthiocholine (ATCh) is an unstable molecule, and will hopefully be stabilized on paper. However, after several tests were performed, it was noted that after being left in the refrigerator for several days, and left in a fume hood with no protection against hydrolyzation, the ATCh was still stable when tested. The most likely reason for the continued activity of the ATCh is due to the Tris buffer it was dissolved in being evaporated, and the ATCh in a solid (or powdered) form is stable. Accordingly, it should be reliable to store the ATCh as a powder form, preferably inside of a soluble (pullulan) capsule.
# Luciferase = target: T1, Luciferase (Photinus pyralis, UniProt P08659); experiment: ATP detection assay with luminescent pills; type: biochemical, Firefly
# T1 construct: purchased Sigma-Aldrich
# T1 sequence (P08659 whole entry): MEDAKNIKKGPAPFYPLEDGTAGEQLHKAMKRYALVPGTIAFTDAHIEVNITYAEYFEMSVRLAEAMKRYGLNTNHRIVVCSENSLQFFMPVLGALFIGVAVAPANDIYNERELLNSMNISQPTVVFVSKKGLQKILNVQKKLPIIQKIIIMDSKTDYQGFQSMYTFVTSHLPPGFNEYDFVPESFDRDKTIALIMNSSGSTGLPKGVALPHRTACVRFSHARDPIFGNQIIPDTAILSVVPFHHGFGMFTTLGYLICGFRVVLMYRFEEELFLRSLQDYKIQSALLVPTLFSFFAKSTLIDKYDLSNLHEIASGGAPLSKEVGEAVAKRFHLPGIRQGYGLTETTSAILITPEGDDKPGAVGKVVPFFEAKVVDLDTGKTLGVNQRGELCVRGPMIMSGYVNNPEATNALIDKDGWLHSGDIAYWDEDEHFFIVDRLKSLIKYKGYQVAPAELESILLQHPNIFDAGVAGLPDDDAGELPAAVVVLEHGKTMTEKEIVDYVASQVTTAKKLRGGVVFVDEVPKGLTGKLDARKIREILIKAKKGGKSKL
# Method: The sensitivity of the luciferase assay was also investigated. To determine the detection limit of the assay, different ATP buffers were prepared with concentration ranging from 0 pM to 1000 pM and tested it with luminescent pills.
# Acetylcholinesterase = conditions: Michaelis rate law, literature (Sadar and Laidler 1974); cited from earlier work
# AChE = AChE (Electrophorus electricus, UniProt O42275); experiment: Pesticide tests in Eppendorf tubes (AChE/IDA color change); type: biochemical; conditions: No. 1: malathion 10-2 mol/L, 5 μL AChE, 250 mg/mL pullulan, 30 μL, incubation 15 min
# AChE, sequence (O42275 24-633): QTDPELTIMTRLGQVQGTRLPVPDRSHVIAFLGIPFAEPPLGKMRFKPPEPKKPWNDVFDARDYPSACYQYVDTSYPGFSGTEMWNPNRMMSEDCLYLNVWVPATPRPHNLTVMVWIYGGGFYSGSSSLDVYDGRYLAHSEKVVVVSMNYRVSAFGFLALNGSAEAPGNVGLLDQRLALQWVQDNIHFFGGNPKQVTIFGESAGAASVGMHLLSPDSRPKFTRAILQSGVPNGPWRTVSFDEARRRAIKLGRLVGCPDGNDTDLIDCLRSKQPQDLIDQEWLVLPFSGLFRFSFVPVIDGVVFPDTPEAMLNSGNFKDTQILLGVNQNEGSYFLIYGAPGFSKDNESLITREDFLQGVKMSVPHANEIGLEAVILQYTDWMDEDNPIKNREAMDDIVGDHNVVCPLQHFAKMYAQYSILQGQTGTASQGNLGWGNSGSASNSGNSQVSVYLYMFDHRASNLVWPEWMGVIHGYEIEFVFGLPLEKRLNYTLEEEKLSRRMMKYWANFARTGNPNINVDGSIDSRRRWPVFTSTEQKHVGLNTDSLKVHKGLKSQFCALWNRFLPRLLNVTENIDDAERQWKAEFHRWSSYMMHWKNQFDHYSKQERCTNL
# Method: Three trials were conducted with fresh malathion (from Bioninterfaces Institute), which was diluted with Tris buffer to a concentration of 10-2 mol/L. A control sample was also done with 5 μL of AChE and 250 mg/mL pullulan to ensure that a color change would occur. The color change was initially green (˜2 minutes), then became a blue color which increased in intensity over time.
# Information about the contents and the results of each Eppendorf tube test with pesticides is presented below. A control test was performed with 5 μL of AChE and L of dH2O with 5 μL of IDA/methanol, and the color change to blue-green was very quick.
# [2] = AChE stability over time in pullulan (reaction rate with IDA, absorbance at 605 nm); type: physicochemical
# Method: In order to quantify the protection that pullulan provides to AChE over time, it was attempted to create a set of samples (40) which will be tested over time. Each sample (cast into a 600 μL eppendorf tube) contains: • i. 40 μL of 200 mg/mL pullulan solution • ii. μL of AChE (250 U/L)
# Each sample tube was allowed to dry, then was sealed and placed into a plastic bag and stored at ambient conditions (˜20° C.). At selected time points, the activity of the solution was tested by measuring absorbance over time, and finding the associated reaction rate (corresponding to the activity of the enzyme). To measure the activity, three (3) samples were taken (to establish triplicate repeats), and 195 μL of Tris buffer (100 mM, pH=8.0) was added to each Eppendorf tube and allowed to dissolve the […]. The resulting solution was then added to a 96 well plate, and absorbance was measured continuously at 605 nm after the addition of 5 μL of 80 mM IDA.
# [3] = Long-term stability of AChE and IDA tablets stored at room temperature; type: physicochemical
# Method: To test the ability of pullulan to retain IDA activity, 10 μL of 40 mM IDA and 40 μL of 120 g/L pullulan in water were mixed and casted in a polypropylene mold with wells with a size of 3 mm in diameter×3 mm in depth. The solution was air-dried overnight at 21° C. and 48% RH; tablet formation was considered not fully completed if the tablet could not be removed from the bottom of the well. […] To test IDA activity, 199 μL of Tris-HCl (100 mM, pH 8) was used to dissolve the pill and 1 μL of fresh 250 U/mL AChE was added. The solution was then transferred to a 96-well plate and the absorbance of the developing blue color was measured at A605 on a TECAN Infinite M200 Pro microtiter plate reader.
# To test the ability of pullulan to retain AChE activity, 1 μL of 250 U/mL AChE and 40 μL of 120 g/L pullulan were mixed and casted into tablets. The solution was air-dried overnight at 21° C. and 48% RH; tablet formation was considered not fully completed if the tablet could not be removed from the bottom of the well; […] To test AChE activity, 195 μL of Tris-HCl (100 mM, pH 8) was used to dissolve the tablet and 5 μL of fresh 80 mM IDA was added. The solution was then transferred to a 96-well plate and the absorbance was measured at A605 on TECAN Infinite M200 Pro microtiter plate reader.
# [4] = Comparison of AChE activity with different concentrations of pullulan after 2 weeks; type: physicochemical; conditions: AChE in 125 and 250 mg/mL pullulan, 2 weeks age
# Method: To determine the effect the concentration of pullulan has on the maintenance of the AChE enzyme two samples of 2 weeks age were tested (125 and 250 mg/mL). […] More trials will be conducted at 1 week intervals to determine if there is a noticeable color intensity difference over time.
# [5] = Loss of AChE activity as a function of temperature (30 min heat treatment); type: physicochemical; conditions: 30-minute heat treatment at 50° C. or above
# Method: To test the ability of pullulan to retain AChE activity, 1 μL of 250 U/mL AChE and 40 μL of 120 g/L pullulan were mixed and casted into tablets. The solution was air-dried overnight at 21° C. and 48% RH; tablet formation was considered not fully completed if the tablet could not be removed from the bottom of the well; and the resulting tablets were kept at room temperature for different lengths of time before being tested. To test AChE activity, 195 μL of Tris-HCl (100 mM, pH 8) was used to dissolve the tablet and 5 μL of fresh 80 mM IDA was added. The solution was then transferred to a 96-well plate and the absorbance was measured at A605 on TECAN Infinite M200 Pro microtiter plate reader.
# The loss of AChE activity, however, is attributed to thermal denaturation. To further examine the role of pullulan in stabilizing AChE, activity of AChE was monitored as a function of temperature. For this experiment, native (unencapsulated) AChE and the corresponding pullulan tablet were treated at a given temperature for 30 min, followed by activity assessment at room temperature. […] In stark contrast, AChE tablets retained ca. 90% of their initial activity even after a 30-minute incubation at 90° C.
# [6] = Stability of 'all-in-one' luminescent pills at room storage condition; type: physicochemical
# Method: All reagents for the luciferase assay except for adenosine triphospate (ATP) were casted in a single pullulan pill. For the pullulan pills aqueous solutions of 10 mM Luciferin, […], 27 mM Coenzyme A (CoA), 170 mM Dithiothreitol (DTT), 10 mM Ethylenediaminetetraacetic acid (EDTA), 107 mM MgCO3, and 267 mM MgSO4 were prepared. 200 μL of each solution was added to 8 mL of 12 w/v % Pullulan solution. Lastly, for each pill 47 μL of the final solution was pipetted onto a PET film and dried in a glove box under nitrogen. The casted pills were then stored at room temperature.
# A buffer solution containing ATP was prepared to test the activity of the luciferase pills. For the buffer solution, 16 mL of water was added to 2 mL of 2.5 mM ATP and 2 mL of 200 mM Tricine and the pH was adjusted to pH 7.8.
# Once the pills were completely dried, they were collected in dark bottles. The pills were stored at room temperature and the activity of the pills was tested over time. On the day the pills were prepared, the activity of the fresh pullulan and reagent solution was tested. 47 μL of the solution and 100 μL of the buffer were added to a 96 well-plate and the luminescence was measured using the TECAN M1000. On subsequent days, the activity of the pills was measured by placing a single pill into a well and 100 μL of ATP buffer. Each test was performed with three repeats.
# [7] = Testing IDA capsules and pullulan films (IDA protection); type: physicochemical
# Method: 15 μL of IDA dissolved in methanol was added to a pullulan capsule (cast in an eppendorf tube lid), and sealed with a 5 mL (50 mg/mL, 3.5 cm petri dish) PVA film using a PVA glue solution. Another capsule was prepared with IDA in a powdered form. The capsules were left to determine if the PVA will serve as an oxygen barrier to protect the IDA from oxidation over a period of time
# In order to determine if pullulan works to stabilize IDA when the IDA is mixed into the pullulan solution, a solution of 300 mg/mL pullulan was mixed, and 5 μL of IDA dissolved in methanol was added to each 30 μL of sample.
# Five samples were cast (total volume of 35 μL) into the caps of 0.6 mL Eppendorf microcentrifuge tubes and left to dry. The activity of the IDA will be measured by: • i. checking for a pink/red color change, which indicates the IDA is hydrolysed or oxidized • ii. testing with AChE to ensure that a blue color change still results Pesticide Tests
# Previously explored was the addition of IDA (solution and powder form) to two PVA capsules. 5 uL of IDA dissolved in methanol was added to one, and IDA in powder form was added to the other.
# Also tested was one of the capsules with IDA solution cast into a pullulan film (in the lid of a 0.6 mL eppendorf tube). […]
compound,measurement,setting,value
"CC(=O)SCC[N+](C)(C)C [ATCh, Acetylthiocholine]",stability of ATCh,[1],still stable
"Nc1ncnc2c1ncn2[C@@H]1O[C@H](COP(=O)(O)OP(=O)(O)OP(=O)(O)O)[C@@H](O)[C@H]1O [ATP, Adenosine triphosphate]",limit of detection of ATP concentration,"Luciferase; at 3a above background, tricine buffer",16 pM
same,limit of detection as amount of ATP,Luciferase; in 100 uL added to the pill,1.6 fmol
CC(=O)Oc1cn(C)c2ccccc12 [N-methylindoxyl acetate],Km,Acetylcholinesterase,2.58 mM
same,kc,Acetylcholinesterase,320 s⁻¹
CCOC(=O)CC(SP(=S)(OC)OC)C(=O)OCC (centres unmarked) [malathion],Result (color change),AChE,IDA/methanol. No color change at 5 minutes.
Acetylcholinesterase [AChE],activity as compared to a fresh sample,"[2]; AChE cast in 200 mg/mL pullulan, stored at ambient conditions (~20 °C), over 30 days",approximately 63%
same,activity of AChE left out without pullulan,"[2]; without any pullulan, left out for 24 hours",completely inactivated
same,time to become completely inactive,[3]; stored in solution at room temperature,≤ 3 days
same,activity of the enzyme over two weeks,[4],not much decreased
same,activity after heat treatment,[5],completely inactive
Luciferase,loss of activity in buffer,[6]; same components stored in buffer solution,loses its activity in buffer solution in few hours
same,activity of enzyme alone in pullulan pills,[6]; stored at room temperature,active even after four months
indoxyl acetate [IDA],time protected from hydrolyzation/oxidation,[7]; IDA solution cast into a pullulan film,~2 weeks
same,IDA stability in PVA capsules,"[7]; IDA solution or powder in PVA capsules, tested with AChE",kept stable over a period of two weeks
same,complete inactivation,[3]; in solution at room temperature,completely inactive within a week
same,loss of activity,"[3]; in solution at room temperature, within one day",70%
